Results taken from patent publication US20180055857A1, “TREATMENT OF ACNE VULGARIS WITH SEQUENTIAL TOPICAL FORMULATIONS COMPRISING ANTIMICROBIAL ORGANIC ACID ANIONS IN ALKALINE PHASE” (KANTIAN SCIENCES CORPORATION, priority 2015, published 2018).
Like-named read-outs stand apart in the source and are kept apart here.

Assays:
E. coli O157:H7 = conditions: beef tissue briefly dipped in a 1% acid solution at 55° C.; cited from earlier work
Listeria monocytogenes = conditions: beef tissue briefly dipped in a 1% acid solution at 55° C.; cited from earlier work

SMILES: O=NO [Nitrite]
- % HONO (pH 2.6): 83.3%
- % NO2^− (pH 2.6): 16.7%
- % HONO (pH 2.8): 76.0%
- % NO2^− (pH 2.8): 24.0%
- % HONO (pH 3.0): 66.7%
- % NO2^− (pH 3.0): 33.3%
- % HONO (pH 3.3): 50.0%
- % NO2^− (pH 3.3): 50.0%
- % HONO (pH 3.5): 38.8%
- % NO2^− (pH 3.5): 61.2%
- % HONO (pH 4.0): 16.6%
- % NO2^− (pH 4.0): 63.4%

SMILES: O=C(O)/C=C/C(=O)O [fumaric acid]
- reduction of E. coli O157:H7 (E. coli O157:H7): much more effective than lactic or acetic acids
- reduction of Listeria monocytogenes (Listeria monocytogenes): much more effective than lactic or acetic acids
